According to PMC4712073 (Analytical and bioanalytical chemistry, 2015):
pIC50: −log10 of the molar value. Like-named read-outs stand apart in the source and are kept apart here. Blank lines part the entries; values can stand above or below the compound they belong to.

Key:
SIRT5 [1] = molecular target: T1, SIRT5 (Homo sapiens, UniProt Q9NXA8); conditions: reported as SIRT5 inhibitor; cited from earlier work
T1 sequence (Q9NXA8 37-310): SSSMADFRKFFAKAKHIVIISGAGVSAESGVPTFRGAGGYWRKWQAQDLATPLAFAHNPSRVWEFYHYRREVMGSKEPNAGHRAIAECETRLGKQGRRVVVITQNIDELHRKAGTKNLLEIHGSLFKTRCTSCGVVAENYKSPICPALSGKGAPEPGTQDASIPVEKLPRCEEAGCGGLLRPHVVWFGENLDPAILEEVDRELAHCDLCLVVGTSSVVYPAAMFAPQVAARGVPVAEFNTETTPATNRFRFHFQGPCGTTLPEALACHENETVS

SIRT5 [2] = molecular target: T1, SIRT5; experiment: Peptide-based SIRT5 desuccinylation assay by droplet microchip electrophoresis; assay type: biochemical

SMILES: N#C/C(=C\c1ccc(-c2cc(Cl)ccc2Cl)o1)C(=O)Nc1cccc2ncccc12 [AGK-2]
pIC50 (SIRT5 [1]): < 4.00

SMILES: CCCCCC[C@H]1C(=O)O[C@H](C)[C@H](NC(=O)c2cccc(NC=O)c2O)C(=O)O[C@@H](C)[C@@H]1OC(=O)CC(C)C [antimycin A]
IC50 (SIRT5 [2]; Prestwick hits, dose-response analysis 0.1 to 100 µM): near the maximum tested dose

SIRT5 inhibition (in words) (SIRT5 [2]; pilot screening, chosen as positive control (10 µM)): potent inhibitor
SMILES: CCCCCCCCCCCCCCCc1cccc(O)c1C(=O)O [anacardic acid]
